Source: patent publication US8119691B2, “Method for treating airway hyper-responsiveness with lipoxin analogs” (National Institutes of Health (NIH), priority 2001, dated 2012)

Experiments:
[1] = test system: OVA sensitized and challenged mice; test: Leukocytes in bronchoalveolar lavage fluid (Wright-Giemsa stain) of OVA sensitized and challenged mice; format: in vivo, mouse (BALB/c); details: LXa i.v.
Experimental: FIG. 3. […] Bronchoalveolar lavage fluids were obtained from OVA sensitized and challenged mice. Leukocytes in bronchoalveolar lavage fluid were enumerated and identified after Wright-Giemsa stain (a). Mediator profile of (b) specific cytokines (IL-5, IL-12, IL-13, eotaxin and TNFα), and lipid mediators, including PGE2 (c), LTB4 and cysLT's (d) were determined by ELISA's in materials from control animals and those receiving LXa (10 μg, i.v.). Results are expressed as mean±SEM (n≧6, d≧2). *P<0.05 by Student's t-test compared to control animals.
Sensitization and challenge protocols. Five to seven week old male BALB/c (Charles River Laboratories, Wilmington, Mass.) or female hCD11b-hALX FvB transgenic mice were housed in isolation cages under viral antibody-free conditions. […] On day 18, 24 h after the last aerosol challenge, airway responsiveness to intravenous methacholine (33-1000 μg/kg) was measured, bilateral bronchoalveolar lavage (BAL) (2 aliquots of 1 ml PBS plus 0.6 mM EDTA) was performed and tissues (whole blood, lungs, mediastinal lymph nodes and spleen) were harvested for histological analysis. Lung resistance (RL) was measured using a sealed constant mass plethysmograph. […] For mice studied using a whole body plethysmograph to assess airway responsiveness (Buxco), each mouse was placed into a chamber and box pressure/time waveform was analyzed to yield the indicator of airflow obstruction, enhanced pause (Penh). […] Readings were initiated at 3 min and continued for 12 min. Peak and one min average Penh values were determined. Serum total IgE levels were determined by ELISA (Crystal Chem, Chicago, Ill.). […]
Allergen-initiated respiratory inflammation. Measurement of inflammatory mediators was determined in cell-free BAL fluid (2000 g, 10 min) by sensitive and specific ELISA's, in tandem, for interleukin-5 (IL-5), IL-13, eotaxin, tumor necrosis factor (TNFα) (R&D Systems, Minneapolis, Minn.), LTB4, cysteinyl LT, PGE2 (Cayman Chemical Co., Ann Arbor, Mich.), and LXA4 (Neogen, Lexington, Ky.). […]

mouse ear skin = test: Eosinophil tissue infiltration: EPO activity in mouse ear skin after topical LTB4 plus PGE2; format: in vivo; details: topical LXa 10 μg per ear, LTB4 1 μg + PGE2 1 μg, 13-16 h
Experimental: FIG. 6. Expression of human ALX in transgenic mice prevents eosinophil trafficking. LTB4 (1 μg) and PGE2 (1 μg) were topically applied (13-16 h) to mouse ear skin and EPO activity in tissue biopsies was determined by bromination of HPA (see Methods). Values represent the mean±SEM for pmoles Br-HPA per μg total protein for Non-tg littermates (n=6) or BLT-tg (n=2) mice in the absence or presence of topical LXa (10 μg per ear) and 2 separate ALX-tg lines (n=4). *P<0.05 by Student's T-test compared to littermate controls.
Eosinophil tissue infiltration. […] EPO activity was monitored by mono-bromination of HPA (Br-HPA). […] Trimethyl silylated HPA, Br-HPA and d4-tyrosine were detected by GC-MS (GC model #6890, MS model #5973, Hewlett Packard, San Fernando, Calif.). […] EPO activity was quantitated by percent conversion of HPA to Br-HPA, taking into account the recovery of the internal standard (>80%) and normalized for the samples' protein content (determined by BioRad protein reagent) (BioRad, Hercules, Calif.).

SMILES: COC(=O)CCC[C@H](O)[C@H](O)/C=C/C=C/C=C\C=C\[C@H](O)COc1ccc(F)cc1 [LXa, 15-epi,16-para-fluoro-phenoxy-LXA4-methyl ester]
- BAL eosinophils [1]: sharply reduced in a dose-dependent fashion
- BAL lymphocytes [1]: sharply reduced in a dose-dependent fashion
- BAL total leukocytes [1]: sharply reduced in a dose-dependent fashion
- eicosanoid-stimulated skin EPO activity (mouse ear skin; Non-tg mice): inhibited eicosanoid-stimulated skin EPO activity
- eicosanoid-stimulated skin EPO activity (mouse ear skin; mice with increased expression of LTB4 receptors (BLT-tg)): inhibited eicosanoid-stimulated skin EPO activity
